This is an account of results in paper PMC11134331, “Cell-active small molecule inhibitors validate the SNM1A DNA repair nuclease as a cancer target” (Chemical Science, 2024).

The target of data set [1] is T1, SNM1A (Homo sapiens, UniProt Q6PJP8).
T1 sequence (Q6PJP8 676-1040): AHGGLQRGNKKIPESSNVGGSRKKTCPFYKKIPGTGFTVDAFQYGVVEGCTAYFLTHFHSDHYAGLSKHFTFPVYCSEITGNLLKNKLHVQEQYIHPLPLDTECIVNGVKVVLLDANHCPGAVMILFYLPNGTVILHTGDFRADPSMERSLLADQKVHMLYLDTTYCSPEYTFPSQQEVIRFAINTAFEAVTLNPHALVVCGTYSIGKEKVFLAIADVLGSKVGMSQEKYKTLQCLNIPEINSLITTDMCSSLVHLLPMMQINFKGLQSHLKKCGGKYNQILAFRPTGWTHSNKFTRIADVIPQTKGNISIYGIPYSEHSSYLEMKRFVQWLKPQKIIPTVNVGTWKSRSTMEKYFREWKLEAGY
Kind of data set: real-time fluorescence-based nuclease assay, SNM1A. The class given is biochemical. More on the design: DNA encoding for the MBL and β-CASP domains of SNM1A (aa 676–1040) was cloned into the baculovirus transfer vector pFB-LIC-Bse; inferred from vector pFB-LIC-Bse and the IMAC purification; made in house; host or cells: Sf9 insect cells (baculovirus). To be noted: resynthesised compounds. On the procedure:
(§1) In brief, the fluorescence-based nuclease assay utilises a chemically modified 20-nucleotide ssDNA substrate with a fluorescein isothiocyanate (FITC) derived 5′-group and an internal black-hole-quencher-1 (BHQ-1), located eight nucleotides distal to the fluorescein group. In the intact substrate the BHQ-1 suppresses fluorescence, however, exonucleolytic digestion of the substrate from the 5′ end by SNM1A uncouples the BHQ-1 and FITC moieties (see Fig. 1D). Spectra were measured every 140 seconds with an increase in fluorescence indicating enzymatic activity by SNM1A (concentration: 0.1 nM).
(§2) Fluorescence-based nuclease digestion SNM1A–C assays were performed as described.[30,45] In the case of SNM1A and SNM1B, a 20-mer oligonucleotide with a 5′ FITC-conjugated-T and an internal BHQ-1 (black hole quencher) conjugated-T, eight nucleotides distal (3′) to the fluor was utilised; whereas for SNM1C a 20-mer oligonucleotide with a 5′ FITC-conjugated-T and a 3′ BHQ-1(black hole quencher) was used to capture all possible endonucleolytic incisions. Reactions (25 μL) were performed in 384 well microplates in nuclease buffer (20 mM HEPES-KOH pH 7.5, 50 mM KCl, 10 mM MgCl2, 0.5 mM TCEP, 0.05% (v/v) Triton-X, 0.1 mg mL^−1 BSA, 5% (v/v) glycerol) with SNM1A/B/C (0.1 nM SNM1A, 0.5 nM SNM1B and 1 nM SNM1C) as indicated. Proteins were incubated for 10 min at RT with the stated compound where applicable, before the reaction was initiated with the addition of 10 nM DNA substrate. […] Fluorescence spectra were measured every 140 s, for 35 min, at 37 °C. The fluorescence intensity of each well was plotted against compound concentration and fitted using a log (inhibitor) response curve using GraphPad Prism software (GraphPad Software, Inc., La Jolla, CA, USA).

The next data set deals with T2, SNM1B (Homo sapiens, UniProt Q9H816).
T2 construct: for the MBL and β-CASP domains of SNM1B (aa 1–335) into baculoviral expression vectors pFB-CT10HF-LIC; made in house; host or cells: Sf9 insect cells (baculovirus)
T2 sequence (Q9H816 1-335): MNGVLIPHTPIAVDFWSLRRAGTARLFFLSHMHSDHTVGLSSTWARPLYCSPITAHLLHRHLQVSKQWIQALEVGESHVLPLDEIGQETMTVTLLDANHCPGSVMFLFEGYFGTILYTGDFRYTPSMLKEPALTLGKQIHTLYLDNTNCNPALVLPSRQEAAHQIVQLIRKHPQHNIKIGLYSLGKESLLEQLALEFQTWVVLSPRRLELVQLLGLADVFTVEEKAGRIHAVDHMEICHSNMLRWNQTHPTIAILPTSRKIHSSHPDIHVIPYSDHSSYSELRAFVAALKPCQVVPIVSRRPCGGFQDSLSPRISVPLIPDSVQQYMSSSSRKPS
The data set can be described thus: real-time fluorescence-based nuclease assay, SNM1B. The class given is biochemical. The method, then:
There is structural similarity between SNM1A, SNM1B, and SNM1C and major mechanistic features are likely conserved between the three nucleases. We therefore tested (13) and other hydroxamic acid analogues for inhibition of SNM1B and SNM1C. Due to differences in catalytic turnover between the three enzymes, different concentrations of SNM1B (1 nM) and SNM1C (2.5 nM) were used compared to that for SNM1A (0.5 nM) in the assays. Note that the substrate utilised for the high-throughput fluorescence based and subsequent SNM1A and SNM1B assays differed slightly for SNM1C reflecting its (primarily) endonucleolytic, rather than exonucleolytic, activity (ESI Fig. 9 ^†).
Fluorescence-based nuclease digestion SNM1A–C assays were performed as described.[30,45] […] Fluorescence was measured using a PHERAstar FSX fluorescent plate reader in fluorescent top read mode using excitation at 495 nm, emission at 525 nm, and cutoff at […]. Fluorescence spectra were measured every 140 s, for 35 min, at 37 °C. The fluorescence intensity of each well was plotted against compound concentration and fitted using a log (inhibitor) response curve using GraphPad Prism software (GraphPad Software, Inc., La Jolla, CA, USA).

A further data set is described as follows: solubility. It is filed as physicochemical.
The target in data set [2] is T3, SNM1C (Homo sapiens, UniProt Q96SD1).
T3 construct: for the MBL and β-CASP domains of SNM1C (aa 1–362) into the baculovirus expression vector pBF-6HZB; made in house; host or cells: Sf9 insect cells (baculovirus)
T3 sequence (Q96SD1 1-362): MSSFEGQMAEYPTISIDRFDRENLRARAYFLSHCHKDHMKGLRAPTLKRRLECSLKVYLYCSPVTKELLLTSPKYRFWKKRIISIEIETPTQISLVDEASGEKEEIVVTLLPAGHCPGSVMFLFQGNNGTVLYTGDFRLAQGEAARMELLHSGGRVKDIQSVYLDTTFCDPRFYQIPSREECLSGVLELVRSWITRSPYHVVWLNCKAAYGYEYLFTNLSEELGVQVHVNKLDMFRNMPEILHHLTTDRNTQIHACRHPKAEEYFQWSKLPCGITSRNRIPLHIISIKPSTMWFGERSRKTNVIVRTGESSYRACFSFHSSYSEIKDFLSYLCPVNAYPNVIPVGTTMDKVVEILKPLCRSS
The data set can be described thus: real-time fluorescence-based nuclease assay, SNM1C. The class given is biochemical. To be noted: real-time fluorescence-based nuclease assay.
From the text: There is structural similarity between SNM1A, SNM1B, and SNM1C and major mechanistic features are likely conserved between the three nucleases. We therefore tested (13) and other hydroxamic acid analogues for inhibition of SNM1B and SNM1C. […] Note that the substrate utilised for the high-throughput fluorescence based and subsequent SNM1A and SNM1B assays differed slightly for SNM1C reflecting its (primarily) endonucleolytic, rather than exonucleolytic, activity (ESI Fig. 9 ^†).
as §2

The test system of data set [3] is γH2AX foci in RPE-1 cells. Kind of data set: microscopic analysis of damage-induced subnuclear foci, RPE-1 cells. It is filed as cell-based, human. As to conditions: RPE-1, cisplatin treated, without 19. On the procedure: (§3) To assess the number of nuclear foci following cisplatin/inhibitor treatments, cells were plated in glass bottom dishes (as above) and allowed to attach. Following treatment, cells were fixed with 4% (v/v) formaldehyde in PBS, blocked with immunofluoresence (IF) blocking buffer (5% horse serum, 1% saponin in PBS) for 1 h, then incubated with primary antibodies at the desired concentrations in IF blocking buffer (overnight, 4 °C).
Images were imported into ImageJ and foci were counted using a macro adjusting for staining levels between experiments. Anti-γH2AX antibodies were a mouse monoclonal (Millipore; JBW301).

The test system of data set [4] is γH2AX and EGFP-SNM1A foci in U2OS cells. The data set can be described thus: microscopic analysis of damage-induced subnuclear foci, U2OS cells expressing EGFP-SNM1A. The class given is cell-based, human. As to conditions: U2OS, cisplatin treated, without 19. On the procedure:
To this end, cells stably expressing N-terminally EGFP-tagged SNM1A (EGFP-SNM1A) were treated with 50 μM cisplatin alone, 19 (50 μM), or with a combination of both compounds. It is known that on treatment of cells with DNA crosslinking agents, SNM1A forms subnuclear foci that are associated with ongoing sites of DNA repair.[37] […] As previously established, cisplatin treatment efficiently induces co-localisation of EGFP-SNM1A foci and γH2AX foci within 4 hours following treatment, marking sites of cisplatin damage and its repair (Fig. 6C–E). These largely resolved 24 hours post-treatment, again consistent with previous studies.[16,37] Co-treatment of cells with 19 and cisplatin saw a robust induction of SNM1A foci, consistent with the SNM1A activity being dispensable for its localisation to sites of crosslink repair, and γH2AX foci formation (Fig. 6C–E). […] This clear persistence of repair intermediates and trapping of EGFP-SNM1A at the sites of these repair intermediate implies that 19 engages with SNM1A in a cellular context, delaying the completion of cisplatin crosslink repair, which, in turn, results in the sensitisation of cells to cisplatin.
as §3, with “°C). After washing cells three times with PBS, cells were incubated with secondary antibodies for 2–4 hours in IF blocking buffer, washed a further 3 times with PBS then stained with Hoechst 333 258 (1 μg mL^−1 in PBS) for 30 minutes before a further three washes (all washes and incubations were performed at room temperature, unless otherwise stated).” for “°C).”
Confocal images were obtained with a Plan APO 63X 1.40NA oil immersion objective, a pinhole setting of 1 AU, bandpass emission settings of 410–468 nm for Hoechst, 490–544 nm for EGFP, 579–624 nm for RFP or Alexa 568, and 633–695 nm for Alexa 647, a projected pixel dimension of around 110 nm × 110 nm, a pixel dwell time of 1.35 μs, and with a line averaging setting of 2. In order to ensure sufficient cell numbers (N > 300), images were acquired in a tiled 5 × 5 format corresponding to an image area of about 0.65 mm × 0.65 mm. Images were imported into ImageJ and foci were counted using a macro adjusting for staining levels between experiments. Anti-γH2AX antibodies were a mouse monoclonal (Millipore; JBW301).

Data set [5] deals with T1, SNM1A. Kind of data set: biochemical. On the procedure: as §1
The target in data set [6] is T1, SNM1A. On the set-up: DNA encoding for the MBL and β-CASP domains of SNM1A (aa 676–1040) was cloned into the baculovirus transfer vector pFB-LIC-Bse; inferred from vector pFB-LIC-Bse and the IMAC purification; made in house; host or cells: Sf9 insect cells (baculovirus). To be noted: cited from earlier work.
In data set [7] the target is T3, SNM1C. As to conditions: cited from earlier work.
Where [8] appears, read: real-time fluorescence-based nuclease assay, read-out: SNM1A IC50.

Structures are written as SMILES.

Consider `COc1ccc2c3c(cccc13)C(=O)N(O)C2=O` [compound 1], for which the IC50 is 2.4 µM at SNM1A [1] (setting [8]), 1.9 µM on SNM1B and 0.37 µM against SNM1C [2]. Further, the “solubility” value in “solubility” is on record as “poor solubility”.

In the case of `N.N.[Cl][Pt][Cl]` [cisplatin, reference compound], the “average γH2AX foci count at 24 hours” value in data set [3] is listed as 10.4 ± 0.3 foci. Besides, in [4], the “average number of γH2AX foci at 24 hours” value came to 21.5 ± 0.5 foci.

With `C=CCNc1nc(N[C@@H](CC(C)C)C(=O)O)c2cc(Cl)ccc2n1` [compound 6], the IC50 is 129 µM at SNM1A [1] (SNM1A IC50, real-time fluorescence-based nuclease assay); 110 µM at SNM1A [1] (setting [8]); 17.4 µM against SNM1A [5].

Regarding `CO/N=C(\C(=O)N[C@@H]1C(=O)N2C(C(=O)O)=C(CSc3nc(=O)c(=O)[nH]n3C)CS[C@H]12)c1csc(N)n1` [compound 5, ceftriaxone], the “inhibition of SNM1A (potency in words)” value at SNM1A [6] is reported as “low μM potency”. The “inhibition of SNM1C (potency in words)” value at SNM1C [7] is “low μM potency”.
